Test results: patent US4335249A, “Herbicidal diphenyl ethers, sulfides, sulfoxides and sulfones” (Rohm and Haas Company, priority 1976, dated 1982)

Assays:
Assay type in all cases: in vivo
[1] = tested on: barnyardgrass (Echinochloa crusgalli); experiment: Preemergence herbicidal activity, barnyardgrass; settings: Pre; for pest or weed control at 8966.8 g/ha: 8 lb/A
Procedure: (§1) Using the procedure described below, compounds of the invention are evaluated for control of several of the following plant species:
(§2) The following est procedure is employed. Seeds of selected crops and weeds are planted in soil in flats. For preemergence tests, the flats are treated with the test compound immediately after the planting. For postemergence tests, the seeds are allowed to germinate, and after two weeks the flats are treated with the test compound. The compound to be evaluated is dissolved in acetone, diluted with water, and sprayed over the flats using a carrier volume equivalent to 50 gallons per acre at the rate of application (pounds per acre, lb/A.) specified in the tables.

foxtail (Setaria spp.) [2] = experiment: Postemergence herbicidal activity, foxtail; settings: Post; for pest or weed control at 4483.4 g/ha: Setaria, post-emergence, 336 h, 4 lb/A
Procedure: as §1
as §2, with “tables. About two weeks after the application of the test compound, the state of growth of the plants is observed and the phytotoxic effect of the compound is evaluated. Tables III and IV give the average percent control achieved by test compounds in terms of the percent of the plants which are killed by the compounds.” for “tables.”

foxtail (Setaria spp.) [3] = experiment: Preemergence herbicidal activity, foxtail; settings: Pre; for pest or weed control at 8966.8 g/ha: 8 lb/A
Procedure: as §1
as §2, with “tables. About two weeks after the application of the test compound, the state of growth of the plants is observed and the phytotoxic effect of the compound is evaluated. Tables III and IV give the average percent control achieved by test compounds in terms of the percent of the plants which are killed by the compounds.” for “tables.”

[4] = tested on: cocklebur (Xanthium pensylvanicum); experiment: Postemergence herbicidal activity, cocklebur; settings: for pest or weed control at 4483.4 g/ha: Xanthium strumarium, post-emergence, 336 h, 4 lb/A
Procedure: as §1
as §2, with “tables. About two weeks after the application of the test compound, the state of growth of the plants is observed and the phytotoxic effect of the compound is evaluated. Tables III and IV give the average percent control achieved by test compounds in terms of the percent of the plants which are killed by the compounds.” for “tables.”

[5] = tested on: tomato (Lycopersicon esculentum); experiment: Preemergence herbicidal activity, tomato; settings: Pre; for pest or weed control at 8966.8 g/ha: 8 lb/A
Procedure: as §1
as §2, with “tables. About two weeks after the application of the test compound, the state of growth of the plants is observed and the phytotoxic effect of the compound is evaluated. Tables III and IV give the average percent control achieved by test compounds in terms of the percent of the plants which are killed by the compounds.” for “tables.”

marigold (Tagetes spp.) [6] = experiment: Preemergence herbicidal activity, marigold; settings: for pest or weed control at 8966.8 g/ha: 8 lb/A
Procedure: as §1
as §2, with “tables. About two weeks after the application of the test compound, the state of growth of the plants is observed and the phytotoxic effect of the compound is evaluated. Tables III and IV give the average percent control achieved by test compounds in terms of the percent of the plants which are killed by the compounds.” for “tables.”

[7] = tested on: barnyardgrass (Echinochloa crusgalli); experiment: Postemergence herbicidal activity, barnyardgrass; settings: Post; for pest or weed control at 4483.4 g/ha: Echinochloa crus-galli, post-emergence, 336 h, 4 lb/A
Procedure: as §1, §2

wild oats (Avena fatua) [8] = experiment: Postemergence herbicidal activity, wild oats; settings: Post; for pest or weed control at 4483.4 g/ha: Avena fatua, post-emergence, 336 h, 4 lb/A, read-out: % control, Wild oat
Procedure: as §1
as §2, with “tables. About two weeks after the application of the test compound, the state of growth of the plants is observed and the phytotoxic effect of the compound is evaluated. Tables III and IV give the average percent control achieved by test compounds in terms of the percent of the plants which are killed by the compounds.” for “tables.”

[9] = tested on: velvetleaf (Abutilon theophrasti); experiment: Preemergence herbicidal activity, velvetleaf; settings: Pre; for pest or weed control at 8966.8 g/ha: 8 lb/A
Procedure: as §1
as §2, with “tables. About two weeks after the application of the test compound, the state of growth of the plants is observed and the phytotoxic effect of the compound is evaluated. Tables III and IV give the average percent control achieved by test compounds in terms of the percent of the plants which are killed by the compounds.” for “tables.”

[10] = tested on: yellow nutsedge (Cyperus esculentus); experiment: Postemergence herbicidal activity, yellow nutsedge; settings: for pest or weed control at 4483.4 g/ha: Cyperus, post-emergence, 336 h, 4 lb/A
Procedure: as §1
as §2, with “tables. About two weeks after the application of the test compound, the state of growth of the plants is observed and the phytotoxic effect of the compound is evaluated. Tables III and IV give the average percent control achieved by test compounds in terms of the percent of the plants which are killed by the compounds.” for “tables.”

[11] = tested on: morningglory (Ipomoca spp.); experiment: Postemergence herbicidal activity, morningglory; settings: for pest or weed control at 4483.4 g/ha: Ipomoea, post-emergence, 336 h, 4 lb/A
Procedure: as §1
as §2, with “tables. About two weeks after the application of the test compound, the state of growth of the plants is observed and the phytotoxic effect of the compound is evaluated. Tables III and IV give the average percent control achieved by test compounds in terms of the percent of the plants which are killed by the compounds.” for “tables.”

[12] = tested on: yellow nutsedge (Cyperus esculentus); experiment: Preemergence herbicidal activity, yellow nutsedge; settings: for pest or weed control at 8966.8 g/ha: 8 lb/A
Procedure: as §1
as §2, with “tables. About two weeks after the application of the test compound, the state of growth of the plants is observed and the phytotoxic effect of the compound is evaluated. Tables III and IV give the average percent control achieved by test compounds in terms of the percent of the plants which are killed by the compounds.” for “tables.”

[13] = tested on: downybrome (Bromus tectorum); experiment: Preemergence herbicidal activity, downybrome; settings: Pre; for pest or weed control at 8966.8 g/ha: 8 lb/A
Procedure: as §1
as §2, with “tables. About two weeks after the application of the test compound, the state of growth of the plants is observed and the phytotoxic effect of the compound is evaluated. Tables III and IV give the average percent control achieved by test compounds in terms of the percent of the plants which are killed by the compounds.” for “tables.”

[14] = tested on: downybrome (Bromus tectorum); experiment: Postemergence herbicidal activity, downybrome; settings: Post; for pest or weed control at 4483.4 g/ha: Bromus tectorum, post-emergence, 336 h, 4 lb/A
Procedure: as §1
as §2, with “tables. About two weeks after the application of the test compound, the state of growth of the plants is observed and the phytotoxic effect of the compound is evaluated. Tables III and IV give the average percent control achieved by test compounds in terms of the percent of the plants which are killed by the compounds.” for “tables.”

wild oats (Avena fatua) [15] = experiment: Preemergence herbicidal activity, wild oats; settings: Pre; for pest or weed control at 8966.8 g/ha: 8 lb/A
Procedure: as §1
as §2, with “tables. About two weeks after the application of the test compound, the state of growth of the plants is observed and the phytotoxic effect of the compound is evaluated. Tables III and IV give the average percent control achieved by test compounds in terms of the percent of the plants which are killed by the compounds.” for “tables.”

[16] = tested on: velvetleaf (Abutilon theophrasti); experiment: Postemergence herbicidal activity, velvetleaf; settings: for pest or weed control at 4483.4 g/ha: Abutilon theophrasti, post-emergence, 336 h, 4 lb/A
Procedure: as §1, §2

[17] = tested on: morningglory (Ipomoca spp.); experiment: Preemergence herbicidal activity, morningglory; settings: for pest or weed control at 8966.8 g/ha: 8 lb/A
Procedure: as §1
as §2, with “tables. About two weeks after the application of the test compound, the state of growth of the plants is observed and the phytotoxic effect of the compound is evaluated. Tables III and IV give the average percent control achieved by test compounds in terms of the percent of the plants which are killed by the compounds.” for “tables.”

[18] = tested on: tomato (Lycopersicon esculentum); experiment: Postemergence herbicidal activity, tomato; settings: Post; for pest or weed control at 4483.4 g/ha: Solanum lycopersicum, post-emergence, 336 h, 4 lb/A
Procedure: as §1
as §2, with “tables. About two weeks after the application of the test compound, the state of growth of the plants is observed and the phytotoxic effect of the compound is evaluated. Tables III and IV give the average percent control achieved by test compounds in terms of the percent of the plants which are killed by the compounds.” for “tables.”

marigold (Tagetes spp.) [19] = experiment: Postemergence herbicidal activity, marigold; settings: for pest or weed control at 4483.4 g/ha: post-emergence, 336 h, 4 lb/A
Procedure: as §1
as §2, with “tables. About two weeks after the application of the test compound, the state of growth of the plants is observed and the phytotoxic effect of the compound is evaluated. Tables III and IV give the average percent control achieved by test compounds in terms of the percent of the plants which are killed by the compounds.” for “tables.”

[20] = tested on: cocklebur (Xanthium pensylvanicum); experiment: Preemergence herbicidal activity, cocklebur; settings: for pest or weed control at 8966.8 g/ha: 8 lb/A
Procedure: as §1
as §2, with “tables. About two weeks after the application of the test compound, the state of growth of the plants is observed and the phytotoxic effect of the compound is evaluated. Tables III and IV give the average percent control achieved by test compounds in terms of the percent of the plants which are killed by the compounds.” for “tables.”

[21] = Echinochloa crus-galli, pre-emergence, 336 h
[22] = Solanum lycopersicum, pre-emergence, 336 h
[23] = Abutilon theophrasti, pre-emergence, 336 h
[24] = Bromus tectorum, pre-emergence, 336 h
[25] = Avena fatua, pre-emergence, 336 h, read-out: % control, Wild oat
[26] = Xanthium strumarium, pre-emergence, 336 h

SMILES	pest or weed control at 4483.4 g/ha (foxtail (Setaria spp.) [2]) [%]	pest or weed control at 4483.4 g/ha [4] [%]	pest or weed control at 4483.4 g/ha [7] [%]	pest or weed control at 4483.4 g/ha (wild oats (Avena fatua) [8]) [%]	pest or weed control at 4483.4 g/ha [10] [%]	pest or weed control at 4483.4 g/ha [11] [%]	pest or weed control at 4483.4 g/ha [14] [%]	pest or weed control at 4483.4 g/ha [16] [%]	pest or weed control at 4483.4 g/ha [18] [%]	pest or weed control at 4483.4 g/ha (marigold (Tagetes spp.) [19]) [%]	pest or weed control at 8966.8 g/ha [1, 21] [%]	pest or weed control at 8966.8 g/ha (foxtail (Setaria spp.) [3]; Setaria, pre-emergence, 336 h) [%]	pest or weed control at 8966.8 g/ha [5, 22] [%]	pest or weed control at 8966.8 g/ha (marigold (Tagetes spp.) [6]; pre-emergence, 336 h) [%]	pest or weed control at 8966.8 g/ha [9, 23] [%]	pest or weed control at 8966.8 g/ha ([12]; Cyperus, pre-emergence, 336 h) [%]	pest or weed control at 8966.8 g/ha [13, 24] [%]	pest or weed control at 8966.8 g/ha (wild oats (Avena fatua) [15]; [25]) [%]	pest or weed control at 8966.8 g/ha ([17]; Ipomoea, pre-emergence, 336 h) [%]	pest or weed control at 8966.8 g/ha [20, 26] [%]	also measured
CC(Oc1ccc(Oc2ccc(C(F)(F)F)cc2Cl)cc1)C(=O)O (centres unmarked) [Example 16]																					% control, Barnyardgrass ([1]; 2 lb/A): 100%; % control, Foxtail (foxtail (Setaria spp.) [2]; 2 lb/A): 90%; % control, Foxtail (foxtail (Setaria spp.) [3]; 2 lb/A): 100%; % control, Cocklebur ([4]; Post, 2 lb/A): 0%; % control, Tomato ([5]; 2 lb/A): 0%; % control, Marigold (marigold (Tagetes spp.) [6]; Pre, 2 lb/A): 0%; % control, Barnyardgrass ([7]; 2 lb/A): 100%; % control, Wild oat (wild oats (Avena fatua) [8]; 2 lb/A): 80%; % control, Velvetleaf ([9]; 2 lb/A): 0%; % control, Nutsedge ([10]; Post, 2 lb/A): 0%; % control, Morningglory ([11]; Post, 2 lb/A): 0%; % control, Nutsedge ([12]; Pre, 2 lb/A): 0%; % control, Downybrome ([13]; 2 lb/A): 70%; % control, Downybrome ([14]; 2 lb/A): 0%; % control, Wild oat (wild oats (Avena fatua) [15]; 2 lb/A): 70%; % control, Velvetleaf ([16]; Post, 2 lb/A): 0%; % control, Morningglory ([17]; Pre, 2 lb/A): 0%; % control, Tomato ([18]; 2 lb/A): 0%; % control, Marigold (marigold (Tagetes spp.) [19]; Post, 2 lb/A): 0%; % control, Cocklebur ([20]; Pre, 2 lb/A): 0%
CCOC(=O)C(C)Oc1ccc([S+]([O-])c2ccccc2C(F)(F)F)cc1 (centres unmarked) [Example 49, Ethyl 2-[4-(2-trifluoromethylphenylsulfinyl)phenoxy]propionate]	20	0	20	30	0	0	0	20	20	0											pest or weed control at 4483.4 g/ha ([1]; Echinochloa crus-galli, pre-emergence, 336 h, 4 lb/A): 0%; pest or weed control at 4483.4 g/ha (foxtail (Setaria spp.) [3]; Setaria, pre-emergence, 336 h, 4 lb/A): 0%; pest or weed control at 4483.4 g/ha ([5]; Solanum lycopersicum, pre-emergence, 336 h, 4 lb/A): 0%; pest or weed control at 4483.4 g/ha (marigold (Tagetes spp.) [6]; pre-emergence, 336 h, 4 lb/A): 0%; pest or weed control at 4483.4 g/ha ([9]; Abutilon theophrasti, pre-emergence, 336 h, 4 lb/A): 0%; pest or weed control at 4483.4 g/ha ([12]; Cyperus, pre-emergence, 336 h, 4 lb/A): 0%; pest or weed control at 4483.4 g/ha ([13]; Bromus tectorum, pre-emergence, 336 h, 4 lb/A): 0%; pest or weed control at 4483.4 g/ha (wild oats (Avena fatua) [15]; Avena fatua, pre-emergence, 336 h, 4 lb/A, read-out: % control, Wild oat): 0%; pest or weed control at 4483.4 g/ha ([17]; Ipomoea, pre-emergence, 336 h, 4 lb/A): 0%; pest or weed control at 4483.4 g/ha ([20]; Xanthium strumarium, pre-emergence, 336 h, 4 lb/A): 0%
CCOC(=O)C(C)Oc1ccc(Sc2ccc(C(F)(F)F)cc2)cc1 (centres unmarked) [Example 46]	30	0	50	20	0	0	30	0	80	0	70	70	0	0	0	0	50	0	0	0	
CCOC(=O)C(C)Oc1ccc(Sc2ccccc2C(F)(F)F)cc1 (centres unmarked) [Example 44, ethyl 2-(4-(2-trifluoromethylphenylthio)phenoxy) propionate]	20	0	0	0	0	0	0	20	0	0	80	0	0	0	30	0	60	0	0	0	
